Each structure is given as a SMILES string. Where “and” joins values, the source holds several entries; their conditions need not be identical. Equal values may be shown once. Some results are limits rather than exact numbers.

Here are results for one molecule from paper PMC10541456, “A phase I, single‐center, open‐label study to investigate the absorption, distribution, metabolism and excretion of encorafenib following a single oral dose of 100 mg [ ^14C] encorafenib in healthy male subjects” (Pharmacology Research & Perspectives, 2023).

A short description of series [1]: Mass balance: excretion of radioactivity in urine and feces (LSC). It is filed as in vivo, human. As to the method:
This study (ClinicalTrials.gov ID, NCT01436656) was a single‐center, open‐label study to investigate the ADME of encorafenib after a single oral administration of 100 mg (90 μCi) [^14C] encorafenib in healthy male subjects. A total of four evaluable subjects were enrolled and dosed. The study consisted of a screening period, a baseline period, a single dose treatment and a 96 h post‐dose observation period. A safety follow‐up assessment by phone was conducted 30 days after administration of 100 mg (90 μCi) [^14C] encorafenib. Subjects completed an overnight fast of at least 10 h prior to administration of the study drug. Subjects were discharged from the clinical site provided that the subject's recovery of [^14C] encorafenib‐related radioactivity was at least 90% of the administered dose. The study duration period could be prolonged if the subject's recovery of related radioactivity was less than 90% by the fifth‐day post‐treatment or the subject had two consecutive 24‐h combined urine and fecal collections yielding ≥1% of dose.
Venous blood samples (18 mL/time point) were collected by either direct venipuncture or from an indwelling cannula inserted into a vein of the forearm into tubes containing potassium ethylene diamine tetra acetic acid (K2‐EDTA) at the following times for metabolite characterization, total radioactivity and parent drug analysis: Pre‐dose, 0.5, 1, 1.5, 2, 3, 4, 6, 8, 12, 24, 48, 72, 96, 120 and 144 h post‐dose. Urine samples were collected into pre‐weighed, uniquely labeled containers pre‐dose (before drug administration) and at the following intervals: 0–4, 4–8, 8–24, 24–48, 48–72, 72–96, 96–120 and 120–144 h post‐dose. Feces samples were collected quantitatively into uniquely labeled, polypropylene containers pre‐dose (before drug administration) and individually until 144 h post‐dose. Urine and feces samples were frozen at −20°C and blood samples at −70°C.
Analysis of total radioactivity data in plasma, blood, feces, and urine was performed by Covance Laboratories Inc. All sample combustions were performed in a Model 307 Sample Oxidizer (Packard Instrument Company) and the resulting ^14CO2 was trapped in a mixture of Perma Fluor™ (Perkin Elmer) and Carbo Sorb® (Perkin Elmer). Oxidation efficiency was evaluated on each day of sample combustion by analyzing a commercial radiolabeled standard both directly in a scintillation cocktail and by oxidation. […] EcoLite™(+) scintillation cocktail was used for samples analyzed directly. All samples were analyzed for radioactivity in Model 2900TR or 2910TR liquid scintillation counters (Packard Instrument Company) for at least 5 min or 100 000 counts. […] All samples were analyzed in duplicate or triplicate, as applicable, if sample size allowed. If results from sample replicates (calculated as ^14C disintegrations per minute (dpm)/g sample) differed by more than 10% from the mean value and sample aliquots had radioactivity greater than 200 dpm, the sample was re‐homogenized or remixed and reanalyzed (if the sample size permitted).
Blood samples were mixed and duplicate aliquots of each (approximately 0.4 g) were combusted and analyzed by liquid scintillation […]. Plasma and urine samples were separately mixed and duplicate weighed aliquots of each (approximately 0.4 g for plasma and 0.2 g for urine) were analyzed directly by LSC. […] Feces samples were analyzed individually (samples were not combined by interval) and the weight of each individual sample was recorded. […]

The nature of series [2]: Stability in simulated gastric and intestinal fluid. It is filed as in vitro ADME. As to conditions: 37°C, relative to time = 0 h. As to the method:
Simulated gastric fluid (SGF) was generated by mixing 2.0 g of sodium chloride and 3.2 g of purified pepsin, which is derived from porcine stomach mucosa, with an activity of 800 to 2500 units per mg of protein, in 7.0 mL of hydrochloric acid and sufficient water to make 1000 mL. The final test solution has a pH of about 1.2. Simulated intestinal fluid (SIF) was generated by dissolving 6.8 g of monobasic potassium phosphate in 250 mL of water and adding 77 mL of 0.2 N sodium hydroxide and 500 mL of water. To this mixture, 10.0 g of pancreatin was added and the solution pH was adjusted with either 0.2 N sodium hydroxide or 0.2 N hydrochloric acid to a pH of 6.8 ± 0.1 and diluted with water to a final volume of 1000 mL. Encorafenib was dissolved in SGF (100 μM final encorafenib concentration) and incubated for 1 h or SIF (1 μM final encorafenib concentration) for 3 h. Dilutions are prepared in HPLC vials by combining 20 μL of the test compound in DMSO with 180 μL of the specified assay media. Separate dilutions are prepared for each time point per media. The media is mixed by repeated pipetting, vortexed and incubated at 37°C. At the specified time period and equal volume of cold ACN is added to the vial to precipitate the protein and quench any enzymatic activity. […] Stability is calculated as % remaining relative to the T = 0 peak area.

[3] abbreviates: mean, through last collection interval (144 h).

Take `COC(=O)N[C@@H](C)CNc1nccc(-c2cn(C(C)C)nc2-c2cc(Cl)cc(NS(C)(=O)=O)c2F)n1` [encorafenib]: the “Fraction of oral absorption (Fa)” value in series [1] (estimated from urine radioactivity plus fecal metabolites, assumes stability in feces and GI tract) is at least 86%. Further, in series [1] (mean ± SD of four subjects, by end of Day 6 (144 h post-dose)), the “Mass balance (total radioactivity recovered)” value stood at 94.5 ± 0.63 % dose. Besides, in series [1] (setting [3]), the “Radioactivity recovered in feces” value was 47.2 % of the dose; the “Radioactivity recovered in urine” value is 47.2 % of the dose and 47 % of the dose. Besides, the “Overall recovery of radioactivity in the excreta, in all four subjects” value in series [1] (single oral 100 mg [14C] encorafenib, urine + feces, bound holding for each subject) is ≥ 93.9% and > 90%. Moreover, the “Percentage remaining in SIF with pancreatin” value in series [2] (3-h incubation, 1 μM, pH 6.8) was “approximately 97%”. Moreover, the “Percentage remaining in SGF with pepsin” value in series [2] (1 h incubation, 100 μM, pH about 1.2) is “approximately 101%”.
